Test results reported in US5238838A (Degussa Aktiengesellschaft, priority 1991, dated 1993).
Entries after “also recorded” stand apart in the source; their conditions may differ.

Key:
[1] = tested on: carnitine amidase (raw extract of strain DSM 6230); assay: Activity test of the raw extract of strain DSM 6230 with enantiomerically pure D- and L-carnitine amide; type: biochemical; details: for Activity (mU/mg) / Activity (mU/ml): raw extract of strain DSM 6230, labelled amide as substrate, 50 mM, 30° C.
Description: After 3 days, the contents of the shaking flasks were centrifuged (10 min., 10000 rpms in a refrigerated centrifuge), and the sedimentated cells were taken up in 100 mM potassium phosphate buffer pH 7.5 (an approximately 20% microorganism suspension was produced).
The microorganisms in this suspension must be macerated in the customary manner (e.g. agitation with fine glass beads or ultrasound treatment). The cell maceration was carried out by means of wet grinding with glass beads (diameter 0.3 mm; 2 g beads per 1 ml cell suspension). The glass beads and the coarse cell fragments were centrifuged off by means of centrifugation in a refrigerated centrifuge (5 min. 12000 rpms). The clear supernatant was designated as raw extract and used for further experiments.
The materials for the activity test contained:
400 μl potassium phosphate buffer 0.1 M, pH 7.5
50 μl substrate in 0.1 M potassium phosphate buffer, pH 7.5
50 μl enzyme solution (raw extract)
The following were used as substrates:
a) DL-carnitine amide final concentration in the test 100 mM
b) D-carnitine amide final concentration in the test 50 mM c) L-carnitine amide final concentration in the test 50 mM
The enzyme test was carried out in 1.5 ml Eppendorf vessels at a temperature of 30° C. The reaction was started by the addition of enzyme solution and stopped by acidification. The precipitated protein was centrifuged off (Eppendorf centrifuge 5 min. 12500 rpms) and the supernatant examined. In order to determine the blank reading, a control specimen for the substrate and the enzyme solution was always used.
The definition of the enzyme unit is 1 mU=1 nM converted substrate per minute.
L-carnitine can be determined enzymatically with the carnitine acetyl transferase. The ammonia was determined on the one hand photometrically as indophenol and on the other hand enzymatically with the aid of glutamate dehydrogenase.
The raw extract of this strain was tested with enantiomerically pure D- and L-carnitine amide:
The raw extract was retested for D- and L-carnitine amide and the enzyme test was stopped after 10 min. (there is still sufficient L-carnitine amide in the test batch) and after 5 hours (the L-carnitine amide has reacted to a great extent or completely). The L-amidase activity, relative to the total amidase activity, was 100% after 10 min. and still over 99% after 5 hours.

L-carnitine amidase [2] = assay: Test for the induction of L-carnitine amidase; type: cell-based, strain DSM 6230; details: for Activity (mU/mg) / Activity (mU/ml): 5 g/l of the substance as inductor, 36 h, L-carnitine amide as substrate; for Induction of L-carnitine amidase (in words): strain DSM 6230
Description: (§1) In this test, various substances were examined for their induction action. At the same time, the growth on these compounds was followed. The medium used was a minimum medium with 1.0 g/l instead of 0.5 g/l yeast extract, to which 5 g/l of the substance to be tested were added in each instance. The culture without inductor contained 5 g/l yeast extract. All tests were carried out with 20 ml shaking cultures which were incubated 36 h at 30° C. and 120 rpms in a rotating [round]shaking machine. These cultures were inoculated with 1% of an initial culture of strain DSM 6230. L-carnitine amide was used as substrate for the enzyme test.
(§2) At the same time, the growth of the bacteria was followed in these carnitine amide concentrations. The culture conditions corresponded to those in example 3.

strain DSM 6230 = assay: Growth of strain DSM 6230 on the test substances (OD660); type: cell-based; details: for OD660: 5 g/l of the substance in minimum medium with 1.0 g/l yeast extract, 36 h, 30° C.; for Growth of the strain on the substance (in words): strain DSM 6230
Description: 1367 strains were isolated during the screening program. These strains were incubated in 100 ml Erlenmeyer flasks containing 20 ml of the particular enrichment medium in a rotary agitator at 30° C. and 120 rpms. The optical density at 660 nm was taken as an indication for the cell growth.
as §1, §2

L-carnitine amidase [3] = assay: Substrate spectrum of L-carnitine amidase; type: biochemical, strain DSM 6230; details: for Rel. activity (%): substrate 50 mM, 30° C., 100 mM potassium phosphate buffer pH 8
Description: The enzyme test was carried out at 30° C. in 100 mM potassium phosphate buffer pH 8. The substrate concentration was 50 mM.

[4] = tested on: 20% cell suspension of the strain DSM 6230; assay: Conversion with whole cells; type: cell-based
Description: The conversion with whole cells was examined by carrying out the customary enzyme test with a 20% cell suspension of the strain DSM 6230. Result: L-carnitine amide is converted by whole cells with 64% greater activity than by a macerated cell suspension of the same concentration. D-carnitine is not converted. It is therefore to be expected that the conversion of L-carnitine amide to L-carnitine can also be carried out very well by means of immobilized microorganisms. […] Suitable microorganism immobilizates are immobilizates based on alginate or chitosan.

Compound: C[N+](C)(C)C[C@@H](O)CC(N)=O [D-carnitine amide]
- Activity (mU/mg) [1]: 0 mU/mg
- Activity (mU/ml) [1]: 0 mU/ml
- Activity (mU/mg) (L-carnitine amidase [2]): 166 mU/mg
- Activity (mU/ml) (L-carnitine amidase [2]): 497 mU/ml
- OD660 (strain DSM 6230): 0.8
- Hydrolysis / conversion by L-carnitine amidase (in words) (L-carnitine amidase [3]): does not hydrolyze
- Rel. activity (%) (L-carnitine amidase [3]): 0%

Compound: C[N+](C)(C)C[C@@H](O)CC#N [D-carnitine nitrile]
- Activity (mU/mg) (L-carnitine amidase [2]): 90 mU/mg
- Activity (mU/ml) (L-carnitine amidase [2]): 206 mU/ml
- OD660 (strain DSM 6230): 0.8
- Rel. activity (%) (L-carnitine amidase [3]): 0%

Compound: C[N+](C)(C)C[C@@H](O)CC(=O)[O-] [D-carnitine]
- Conversion by whole cells (in words) [4]: not converted

Compound: NCC(N)=O [Glycine amide]
- Activity (mU/mg) (L-carnitine amidase [2]): 43 mU/mg
- Activity (mU/ml) (L-carnitine amidase [2]): 180 mU/ml
- Induction of L-carnitine amidase (in words) (L-carnitine amidase [2]): not induced
- OD660 (strain DSM 6230): 1.0
- Growth of the strain on the substance (in words) (strain DSM 6230): good growth substrates
- Rel. activity (%) (L-carnitine amidase [3]): 0%

Compound: CC(C)C(N)=O [Isobutyramide]
- Activity (mU/mg) (L-carnitine amidase [2]): 41 mU/mg
- Activity (mU/ml) (L-carnitine amidase [2]): 193 mU/ml
- OD660 (strain DSM 6230): 1.1
- Rel. activity (%) (L-carnitine amidase [3]): 0%

Compound: C[N+](C)(C)C[C@H](O)CC(N)=O [L-carnitine amide]
- Activity (mU/mg) [1]: 1960 mU/mg
- Activity (mU/ml) [1]: 8624 mU/ml
- L-amidase activity, relative to the total amidase activity ([1]; raw extract, enzyme test stopped after 10 min.): 100%
- L-amidase activity, relative to the total amidase activity ([1]; raw extract, enzyme test stopped after 5 hours): over 99%
- L-amidase activity (%) ([1]; raw extract, relative to total amidase activity): 100%
- Activity (mU/mg) (L-carnitine amidase [2]): 1706 mU/mg
- Activity (mU/ml) (L-carnitine amidase [2]): 8530 mU/ml
- Induction of L-carnitine amidase (in words) (L-carnitine amidase [2]): induced; also recorded: best of the inductors tested
- OD660 (strain DSM 6230): 3.5
- Growth of the strain on the substance (in words) (strain DSM 6230): Good growth
- Hydrolysis / conversion by L-carnitine amidase (in words) (L-carnitine amidase [3]): hydrolyzes
- Rel. activity (%) (L-carnitine amidase [3]): 100%
- Activity of whole cells, greater than that of a macerated cell suspension of the same concentration [4]: 64%

Compound: C[N+](C)(C)C[C@H](O)CC#N [L-carnitine nitrile]
- Activity (mU/mg) (L-carnitine amidase [2]): 65 mU/mg
- Activity (mU/ml) (L-carnitine amidase [2]): 183 mU/ml
- OD660 (strain DSM 6230): 0.8
- Rel. activity (%) (L-carnitine amidase [3]): 0%

Compound: CC(C)C[C@H](N)C(N)=O [L-leucine amide]
- Activity (mU/mg) (L-carnitine amidase [2]): 9 mU/mg
- Activity (mU/ml) (L-carnitine amidase [2]): 34 mU/ml
- Induction of L-carnitine amidase (in words) (L-carnitine amidase [2]): not induced
- OD660 (strain DSM 6230): 2.5
- Growth of the strain on the substance (in words) (strain DSM 6230): Good growth
- Rel. activity (%) (L-carnitine amidase [3]): 0%

Compound: NC(=O)[C@@H](N)Cc1ccccc1 [L-phenylalanine amide]
- Activity (mU/mg) (L-carnitine amidase [2]): 72 mU/mg
- Activity (mU/ml) (L-carnitine amidase [2]): 172 mU/ml
- OD660 (strain DSM 6230): 0.6
- Rel. activity (%) (L-carnitine amidase [3]): 0%

Compound: NC(=O)[C@@H]1CCCN1 [L-proline amide]
- Activity (mU/mg) (L-carnitine amidase [2]): 54 mU/mg
- Activity (mU/ml) (L-carnitine amidase [2]): 250 mU/ml
- OD660 (strain DSM 6230): 1.0
- Rel. activity (%) (L-carnitine amidase [3]): 0%

Compound: CC(C)[C@H](N)C(N)=O [L-valine amide]
- Activity (mU/mg) (L-carnitine amidase [2]): 12 mU/mg
- Activity (mU/ml) (L-carnitine amidase [2]): 32 mU/ml
- OD660 (strain DSM 6230): 0.9
- Rel. activity (%) (L-carnitine amidase [3]): 0%

Compound: CC(O)C(N)=O (stereo not drawn) [Lactic acid amide]
- Activity (mU/mg) (L-carnitine amidase [2]): 28 mU/mg
- Activity (mU/ml) (L-carnitine amidase [2]): 55 mU/ml
- OD660 (strain DSM 6230): 0.8
- Rel. activity (%) (L-carnitine amidase [3]): 0%

Compound: C=C(C)C(N)=O [Methacrylamide]
- Activity (mU/mg) (L-carnitine amidase [2]): 76 mU/mg
- Activity (mU/ml) (L-carnitine amidase [2]): 237 mU/ml
- OD660 (strain DSM 6230): 0.8
- Rel. activity (%) (L-carnitine amidase [3]): 0%

Compound: CCC(N)=O [Propionamide]
- Activity (mU/mg) (L-carnitine amidase [2]): 29 mU/mg
- Activity (mU/ml) (L-carnitine amidase [2]): 129 mU/ml
- OD660 (strain DSM 6230): 1.1
- Rel. activity (%) (L-carnitine amidase [3]): 0%
